Measured values: the NIST ThermoML archive (doi:10.1021/je0340755)
Numbers after ± are expanded uncertainties.

Assay: xn = mol fraction of the nth substance listed
Conditions: 101.3 kPa, Liquid; for viscosity: Capillary tube (Ostwald / Ubbelohde) method

CC(O)CO (centres undefined) [1,2-propanediol] + O
Conditions | mass density, 298.15 K [kg/m3] | mass density, 308.15 K [kg/m3] | mass density, 318.15 K [kg/m3] | speed of sound, 298.15 K [m/s] | speed of sound, 308.15 K [m/s] | speed of sound, 318.15 K [m/s] | viscosity, 298.15 K [mPa·s] | viscosity, 308.15 K [mPa·s] | viscosity, 318.15 K [mPa·s]
x2 = 0.044 | 1033.39 ± 0.43 | 1026.01 ± 0.41 | 1017.94 ± 0.39 | 1511.4 ± 6.3 | 1502.9 ± 6.2 | 1451.7 ± 6.1 | 41.25 ± 0.2 | 23.03 ± 0.12 | –
x2 = 0.0987 | 1034.15 ± 0.43 | 1026.76 ± 0.41 | 1018.71 ± 0.39 | 1518.3 ± 6.3 | 1509.5 ± 6.3 | 1458.8 ± 6.1 | 38.41 ± 0.18 | 21.43 ± 0.12 | –
x2 = 0.1484 | 1034.84 ± 0.42 | 1027.45 ± 0.4 | 1019.41 ± 0.38 | 1523 ± 6.3 | 1513.1 ± 6.3 | 1463.2 ± 6.1 | 35.74 ± 0.17 | 19.93 ± 0.11 | –
x2 = 0.2498 | 1036.3 ± 0.42 | 1028.92 ± 0.4 | 1020.89 ± 0.37 | 1531.6 ± 6.3 | 1524.5 ± 6.3 | 1476.1 ± 6.2 | 30.2 ± 0.14 | 16.8 ± 0.098 | –
x2 = 0.3494 | 1037.8 ± 0.41 | 1030.43 ± 0.39 | 1022.37 ± 0.37 | 1551.3 ± 6.4 | 1541.8 ± 6.3 | 1495.1 ± 6.2 | 24.83 ± 0.12 | 13.77 ± 0.088 | –
x2 = 0.4494 | 1039.24 ± 0.41 | 1031.91 ± 0.39 | 1023.79 ± 0.36 | 1581.6 ± 6.5 | 1565.2 ± 6.4 | 1520.3 ± 6.3 | 19.71 ± 0.11 | 10.9 ± 0.08 | –
x2 = 0.5029 | 1039.87 ± 0.4 | 1032.59 ± 0.38 | 1024.44 ± 0.36 | 1602.9 ± 6.5 | 1581.4 ± 6.5 | 1537.6 ± 6.3 | 17.14 ± 0.096 | 9.465 ± 0.077 | 5.202 ± 0.068
x2 = 0.5499 | 1040.27 ± 0.4 | 1033.05 ± 0.38 | 1024.88 ± 0.36 | 1622.2 ± 6.6 | 1598.4 ± 6.5 | – | 15 ± 0.09 | 8.274 ± 0.075 | 4.639 ± 0.068
x2 = 0.5597 | 1040.33 ± 0.4 | 1033.12 ± 0.38 | – | 1626.9 ± 6.6 | 1602.2 ± 6.5 | – | 14.56 ± 0.089 | 8.034 ± 0.074 | 4.528 ± 0.068
x2 = 0.6501 | 1040.2 ± 0.39 | 1033.19 ± 0.37 | – | 1660.5 ± 6.7 | 1640 ± 6.6 | – | 10.84 ± 0.079 | 5.979 ± 0.07 | 3.576 ± 0.066
x2 = 0.7499 | 1037.73 ± 0.38 | 1031.14 ± 0.36 | – | 1687.6 ± 6.8 | 1672.3 ± 6.7 | – | 7.287 ± 0.072 | 4.049 ± 0.066 | 2.675 ± 0.065
x2 = 0.85 | 1030.31 ± 0.35 | 1024.53 ± 0.34 | – | 1676.8 ± 6.7 | 1660.9 ± 6.7 | – | 4.325 ± 0.067 | 2.473 ± 0.064 | 1.864 ± 0.064
x2 = 0.9003 | 1023.26 ± 0.33 | 1018.14 ± 0.31 | – | 1642.7 ± 6.6 | 1628.3 ± 6.6 | – | 3.049 ± 0.065 | 1.81 ± 0.064 | 1.462 ± 0.064
x2 = 0.9115 | 1021.26 ± 0.32 | 1016.3 ± 0.31 | – | 1632.5 ± 6.6 | 1618.4 ± 6.6 | – | 2.782 ± 0.065 | 1.673 ± 0.064 | 1.37 ± 0.063
x2 = 0.9154 | 1020.51 ± 0.32 | 1015.63 ± 0.31 | – | 1627.5 ± 6.6 | 1614.8 ± 6.6 | – | 2.692 ± 0.065 | 1.626 ± 0.064 | 1.338 ± 0.063
x2 = 0.927 | 1018.16 ± 0.31 | 1013.47 ± 0.3 | – | 1614.3 ± 6.6 | 1603.4 ± 6.5 | – | 2.425 ± 0.064 | 1.491 ± 0.064 | 1.242 ± 0.063
x2 = 0.9367 | 1016.02 ± 0.31 | 1011.51 ± 0.29 | – | 1602.1 ± 6.5 | 1593.2 ± 6.5 | – | 2.208 ± 0.064 | 1.379 ± 0.063 | 1.16 ± 0.063
x2 = 0.9504 | 1012.69 ± 0.3 | 1008.45 ± 0.28 | – | 1582.9 ± 6.5 | 1578 ± 6.4 | – | 1.907 ± 0.064 | 1.227 ± 0.063 | 1.043 ± 0.063
x2 = 0.9551 | 1011.46 ± 0.29 | 1007.32 ± 0.28 | – | 1577.5 ± 6.4 | 1572.6 ± 6.4 | – | 1.806 ± 0.064 | 1.177 ± 0.063 | 1.003 ± 0.063
x2 = 0.96 | 1010.13 ± 0.29 | 1006.1 ± 0.27 | – | 1570.2 ± 6.4 | 1566.9 ± 6.4 | – | 1.701 ± 0.064 | 1.124 ± 0.063 | 0.96 ± 0.063
x2 = 0.9696 | 1007.36 ± 0.28 | 1003.55 ± 0.27 | – | 1554.1 ± 6.4 | 1555.5 ± 6.4 | – | 1.501 ± 0.064 | 1.023 ± 0.063 | 0.876 ± 0.063
x2 = 0.9797 | 1004.21 ± 0.27 | 1000.65 ± 0.26 | – | 1535.9 ± 6.3 | 1543.3 ± 6.3 | – | 1.294 ± 0.063 | 0.919 ± 0.063 | 0.784 ± 0.063
x2 = 0.9902 | 1000.65 ± 0.26 | 997.36 ± 0.26 | – | 1518 ± 6.3 | 1530.7 ± 6.3 | – | 1.083 ± 0.063 | 0.815 ± 0.063 | 0.688 ± 0.063
x2 = 0.9923 | 999.9 ± 0.26 | 996.67 ± 0.27 | – | 1513.6 ± 6.2 | 1528.2 ± 6.3 | – | 1.041 ± 0.063 | 0.794 ± 0.063 | 0.668 ± 0.063
x2 = 0.9948 | 998.99 ± 0.26 | 995.83 ± 0.27 | – | 1508.4 ± 6.2 | 1525.2 ± 6.3 | – | 0.992 ± 0.063 | 0.769 ± 0.063 | 0.645 ± 0.063
